Test results published in patent US9629899B2, “Targeted cargo protein combination therapy” (priority 2008, dated 2017).

How the values were obtained:
[1] = mice receiving optimal doses; data not shown
[2] = tested on: MIA-PaCa-2 cells; assay: cells; type: cell-based, human
[3] = tested on: MIA-PaCa-2-GFP tumors; assay: Early pancreatic tumor model, orthotopic MIA-PaCa-2-GFP, whole-body imaging and survival; type: in vivo, nude mice
Procedure: (§1) Surgical orthotopic implantation of MIA-PaCa-2-GFP tumors. MIA-PaCa-2-GFP cells were injected s.c. into the right dorsal flank of nude mice. Pancreatic tumors, grown s.c. in nude mice, were cut with scissors and minced into f3% 3% 3-mm pieces. For orthotopic surgery, the pancreas was carefully exposed, and tumor chunks were transplanted on the middle of the pancreas with a 6-0 Dexon surgical suture (Davis-Geck, Inc.). The pancreas was then returned to the peritoneal cavity, the abdominal wall, and the skin was closed with 6-0 Dexon sutures.
Experimental design and treatment. For early pancreatic cancer model, primary tumor lesions were detected by external whole-body imaging on day 4 after transplantation. Once the tumors were visualized, mice were randomized into four groups of 10 each. Treatment was initiated on day 5. For advanced pancreatic cancer model, primary and metastasis tumor lesions were detected by external whole-body imaging on day 14 post-transplantation of tumor chunk and randomized into four groups of 10 mice each. Treatment was initiated on day 15.
(§2) Statistical analysis. The mean tumor volume in therapeutic and control groups was analyzed by ANOVA. Survival curves were generated by Kaplan-Meier method and compared by using the log-rank test.
Treatment was initiated on day 5 after transplantation. […]

[4] = tested on: MIA-PaCa-2-GFP tumors; assay: Advanced metastatic pancreatic tumor model, orthotopic MIA-PaCa-2-GFP, whole-body imaging and survival; type: in vivo, nude mice
Procedure: as §1
For advanced pancreatic cancer model, primary and metastasis tumor lesions were detected by external whole-body imaging on day 14 post-transplantation of tumor chunk and randomized into four groups of 10 mice each. Treatment was initiated on day 15.
The mean tumor volume in therapeutic and control groups was analyzed by ANOVA. Survival curves were generated by Kaplan-Meier method and compared by using the log-rank test.
Group 2 animals received gemcitabine (150 mg/kg) by i.p. administration twice a week as long as the experiment lasted.

[5] = tested on: SW1990 cells; assay: cells; type: cell-based, human
[6] = tested on: Capan-1 cells; assay: cells; type: cell-based, human
[7] = tested on: HS766T cells; assay: Protein synthesis inhibition assay (cytotoxicity), HS766T; type: cell-based; details: Homo sapiens, read-out: IC50 (50% protein synthesis inhibition), single agent
Procedure: Protein synthesis inhibition assay and assessment of synergism or antagonism. […] On the basis of the isobologram analysis for mutually exclusive effects, the CI value was calculated as follows:

[8] = tested on: clinical pancreatic cancer sample xenograft; assay: Advanced orthotopic pancreatic cancer model from a clinical sample, survival; type: in vivo; details: clinical sample in SCID mice, treatment from day 31; gemcitabine 150 mg/kg i.p. twice a week; PRX321 100 ug/kg i.p. twice a day days 31-35; non-treatment 62 days
Procedure: Primary and orthotopic pancreatic cancer model using a clinical sample. […] Viable tumor tissue from specimen was cut into small pieces (3% 3% 3 mm) and implanted in the pancreas of 5- to 6-week-old male SCID mice. Primary xenografts were propagated continuously in SCID mice for in vivo testing. Clinical sample-bearing mice were also treated after day 31 by the same protocol as described above.
as §2
These mice, when advanced disease developed, were divided into four groups on day 31 and treated as described in Materials and Methods. […] Group 2 animals received gemcitabine (150 mg/kg) by i.p. administration twice a week as long as the experiment lasted.

[9] = Homo sapiens, read-out: IC50 (50% protein synthesis inhibition), single agent

Nc1ccn([C@@H]2O[C@H](CO)[C@@H](O)C2(F)F)c(=O)n1 [Gemcitabine]
Visible signs of toxicity (weight loss, inactivity) [1]: no visible signs of toxicity
IC50 [2, 9]: 22 nM
IC75 (75% protein synthesis inhibition) ([2]; single agent): 280 nM
Median survival time ([3]; non-treatment group 27 days): 54 days
Tumor growth compared with non-treatment group (whole-body imaging) ([3]; treatment from day 5, gemcitabine 150 mg/kg i.p. twice a week, PRX321 100 ug/kg i.p. twice a day for 5 days): reduction in the rate of tumor growth
Reduction in tumor size on day 28 compared with the no treatment group ([4]; day 28): 39.8%
Median survival time ([4]; non-treatment group 28 days): 34 days
Tumor growth compared with non-treatment group (whole-body imaging) ([4]; treatment from day 15, gemcitabine 150 mg/kg i.p. twice a week, PRX321 100 ug/kg i.p. twice a day for 5 days): reduction in the rate of tumor growth
IC50 [5, 9]: 1000 nM
IC75 (75% protein synthesis inhibition) ([5]; single agent): 3,000 nmol/L
IC50 [6, 9]: 3.2 nM
IC75 (75% protein synthesis inhibition) ([6]; single agent): 9 nM
IC50 [7]: 14 nM
Median survival time [8]: 86 days
